Usually EC50 stands for the concentration needed to bring the measured effect to its halfway point.

Where two headings read alike, the source gives them in different places.

The conditions of data set [1]: snar bond.
The target of data set [2] is CFTR-mediated chloride transport (Homo sapiens, UniProt P13569). It counts as cell-based. As to conditions: enteroid cells incubated with test compound 18-24 hours, acute 10 μM forskolin and 300 nM Compound III; for Max. Activity: % of chloride transport with 3 μM Compound A, 3 μM Compound II and 300 nM acute Compound III triple combination control. The method, boiled down:
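Human intestinal enteroid cells incubated with compound 18–24 h at 37° C., then membrane potential dye (FLIPR) read 15 min after chloride-free stimulation with 10 μM forskolin, 100 μM IBMX and 300 nM Compound III. AUC expressed as % of triple-combination control (3 μM Compound A, 3 μM Compound II, 300 nM Compound III).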

[3] abbreviates: from CC1(C)CC(CCCCCNc2cccc(S(=O)(=O)NC(=O)c3ccc(-n4ccc(OCCC5(C(F)(F)F)CC5)n4)nc3Cl)n2)CN1, 17-membered ring, K2CO3/CsF/3A MS, DMSO, 35.8 mM, 165.0 °C, 16.0 h.

Sequence of CFTR-mediated chloride transport (P13569 whole entry, looked up): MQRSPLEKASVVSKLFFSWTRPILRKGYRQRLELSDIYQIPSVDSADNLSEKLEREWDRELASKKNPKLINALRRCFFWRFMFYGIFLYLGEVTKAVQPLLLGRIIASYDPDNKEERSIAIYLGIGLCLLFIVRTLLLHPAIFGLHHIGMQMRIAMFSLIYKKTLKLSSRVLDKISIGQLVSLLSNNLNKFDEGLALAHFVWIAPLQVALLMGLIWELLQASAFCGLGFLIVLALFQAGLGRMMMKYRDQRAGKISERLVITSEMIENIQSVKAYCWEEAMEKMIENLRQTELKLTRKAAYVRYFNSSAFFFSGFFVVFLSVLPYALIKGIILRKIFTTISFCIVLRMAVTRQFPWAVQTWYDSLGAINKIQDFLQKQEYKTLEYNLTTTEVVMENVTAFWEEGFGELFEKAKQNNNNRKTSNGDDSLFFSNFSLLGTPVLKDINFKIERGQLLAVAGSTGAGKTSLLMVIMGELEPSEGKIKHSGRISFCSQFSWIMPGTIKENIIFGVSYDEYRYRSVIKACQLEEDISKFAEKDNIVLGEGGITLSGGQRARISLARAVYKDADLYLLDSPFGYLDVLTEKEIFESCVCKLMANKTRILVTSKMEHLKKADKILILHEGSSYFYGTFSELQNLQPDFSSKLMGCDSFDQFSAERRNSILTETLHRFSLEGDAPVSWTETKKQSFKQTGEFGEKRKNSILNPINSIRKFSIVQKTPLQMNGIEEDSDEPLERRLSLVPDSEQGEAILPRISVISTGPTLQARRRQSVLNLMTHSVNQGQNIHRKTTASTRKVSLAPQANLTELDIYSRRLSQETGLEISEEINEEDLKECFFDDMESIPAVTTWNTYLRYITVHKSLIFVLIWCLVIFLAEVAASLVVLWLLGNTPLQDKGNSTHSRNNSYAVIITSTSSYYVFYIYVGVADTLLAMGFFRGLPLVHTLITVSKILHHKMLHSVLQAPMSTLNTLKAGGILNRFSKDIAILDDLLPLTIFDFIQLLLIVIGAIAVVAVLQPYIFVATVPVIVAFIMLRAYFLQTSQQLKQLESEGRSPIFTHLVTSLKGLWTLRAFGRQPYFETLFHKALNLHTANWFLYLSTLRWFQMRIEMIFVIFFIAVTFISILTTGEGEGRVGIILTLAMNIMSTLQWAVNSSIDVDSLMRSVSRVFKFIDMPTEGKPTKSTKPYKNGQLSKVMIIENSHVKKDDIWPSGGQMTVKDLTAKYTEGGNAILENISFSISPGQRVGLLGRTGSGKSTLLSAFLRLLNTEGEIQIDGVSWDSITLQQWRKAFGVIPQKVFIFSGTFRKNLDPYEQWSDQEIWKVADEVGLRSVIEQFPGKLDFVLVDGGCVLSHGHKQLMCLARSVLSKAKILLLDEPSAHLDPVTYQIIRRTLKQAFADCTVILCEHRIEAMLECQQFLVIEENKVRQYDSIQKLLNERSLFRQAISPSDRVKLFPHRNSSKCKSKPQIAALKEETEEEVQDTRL

The molecule `CN1CCCC2CCC(C)(C)N2c2nc(-n3ccc(OCCC4(C(F)(F)F)CC4)n3)ccc2C(=O)NS(=O)(=O)c2cccc1n2` (racemic) [Compound 9, 12,12,19-trimethyl-8-(3-{2-[1-(trifluoromethyl)cyclopropyl]ethoxy}-1H-pyrazol-1-yl)-2λ^6-thia-3,9,11,19,24-pentaazatetracyclo[18.3.1.05,10.011,15]tetracosa-1(23),5,7,9,20(24),21-hexaene-2,2,4-trione] registered a ring closure, isolated yield in data set [1] (from CN(CCCC1CCC(C)(C)N1)c1cccc(S(=O)(=O)NC(=O)c2ccc(-n3ccc(OCCC4(C(F)(F)F)CC4)n3)nc2Cl)n1, 14-membered ring, K2CO3/CsF/3A MS, DMSO, 72.3 mM, 150.0 °C, 25.0 h) of 78%. In addition, in data set [2], the EC50 was less than 1 µM and the “Max. Activity” value is “++ (++ is 30-60%)”.
With `CC1(C)CC2CCCNc3cccc(n3)S(=O)(=O)NC(=O)c3ccc(-n4ccc(OCCC5(C(F)(F)F)CC5)n4)nc3N1C2` (racemic) [Compound 12, 12,12-dimethyl-8-(3-{2-[1-(trifluoromethyl)cyclopropyl]ethoxy}-1H-pyrazol-1-yl)-2λ^6-thia-3,9,11,18,23-pentaazatetracyclo[17.3.1.111,14.05,10]tetracosa-1(23),5(10),6,8,19,21-hexaene-2,2,4-trione], the ring closure, isolated yield in data set [1] (from 2-chloro-N-[[6-[3-(5,5-dimethylpyrrolidin-3-yl)propylamino]-2-pyridyl]sulfonyl]-6-[3-[2-[1-(trifluoromethyl)cyclopropyl]ethoxy]pyrazol-1-yl]pyridine-3-carboxamide (dihydrochloride salt), 15-membered ring, K2CO3/CsF, NMP, 144.7 mM, 150.0 °C) was determined as 67%. For the same molecule, in data set [2], the EC50 was less than 1 µM and the “Max. Activity” value is “+++ (+++ is >60%)”.
Molecule `CC1(C)CC2CCCNc3cccc(n3)S(=O)(=O)NC(=O)c3ccc(-n4ccc(OCC5(C(F)(F)F)CC5)n4)nc3N1C2` (racemic) [Compound 15, 12,12-dimethyl-8-(3-{[1-(trifluoromethyl)cyclopropyl]methoxy}-1H-pyrazol-1-yl)-2λ^6-thia-3,9,11,18,23-pentaazatetracyclo[17.3.1.111,14.05,10]tetracosa-1(23),5(10),6,8,19,21-hexaene-2,2,4-trione] displayed a ring closure, isolated yield in data set [1] (from CC1(C)CC(CCCNc2cccc(S(=O)(=O)NC(=O)c3ccc(-n4ccc(OCC5(C(F)(F)F)CC5)n4)nc3Cl)n2)CN1, 15-membered ring, K2CO3/CsF/3A MS, DMSO, 43.8 mM, 150.0 °C, 16.0 h, 2 steps) of 54%. In data set [2], the EC50 was less than 1 µM and the “Max. Activity” value was “+++ (+++ is >60%)”.
Molecule `CC1(C)CC2CCCCNc3cccc(n3)S(=O)(=O)NC(=O)c3ccc(-n4ccc(OCCC5(C(F)(F)F)CC5)n4)nc3N1C2` (racemic) [Compound 28, 12,12-dimethyl-8-(3-{2-[1-(trifluoromethyl)cyclopropyl]ethoxy}-1H-pyrazol-1-yl)-2λ^6-thia-3,9,11,19,24-pentaazatetracyclo[18.3.1.111,14.05,10]pentacosa-1(23),5,7,9,20(24),21-hexaene-2,2,4-trione] returned a ring closure, isolated yield in data set [1] (from CC1(C)CC(CCCCNc2cccc(S(=O)(=O)NC(=O)c3ccc(-n4ccc(OCCC5(C(F)(F)F)CC5)n4)nc3Cl)n2)CN1, 16-membered ring, K2CO3/CsF/3A MS, DMSO, 62.4 mM, 150.0 °C, 18.0 h, 2 steps) of 60%. Also, in data set [2], the EC50 is less than 1 µM and the “Max. Activity” value was “++ (++ is 30-60%)”.
With `CC1(C)CC2CCCOc3cccc(n3)S(=O)(=O)NC(=O)c3ccc(-n4ccc(OCCC5(C(F)(F)F)CC5)n4)nc3N1C2` (racemic) [Compound 40, 12,12-dimethyl-8-(3-{2-[1-(trifluoromethyl)cyclopropyl]ethoxy}-1H-pyrazol-1-yl)-18-oxa-2λ^6-thia-3,9,11,23-tetraazatetracyclo[17.3.1.111,14.05,10]tetracosa-1(22),5,7,9,19(23),20-hexaene-2,2,4-trione], the ring closure, isolated yield in data set [1] (from CC1(C)CC(CCCOc2cccc(S(=O)(=O)NC(=O)c3ccc(-n4ccc(OCCC5(C(F)(F)F)CC5)n4)nc3Cl)n2)CN1, 15-membered ring, K2CO3/CsF/3A MS, DMSO, 37.3 mM, 150.0 °C, 8.0 h) came to 48%. In data set [2], the EC50 is less than 1 µM and the “Max. Activity” value is “++ (++ is 30-60%)”.
In data set [1] (from CC1(C)CC(CCCOc2ccc(S(=O)(=O)NC(=O)c3ccc(-n4ccc(OCCC5(C(F)(F)F)CC5)n4)nc3Cl)cc2)CN1, 16-membered ring, K2CO3/CsF/3A MS, DMSO, 37.3 mM, 35.0 h), `CC1(C)CC2CCCOc3ccc(cc3)S(=O)(=O)NC(=O)c3ccc(-n4ccc(OCCC5(C(F)(F)F)CC5)n4)nc3N1C2` (racemic) [Compound 88, 12,12-Dimethyl-8-(3-{2-[1-(trifluoromethyl)cyclopropyl]ethoxy}-1H-pyrazol-1-yl)-18-oxa-2λ^6-thia-3,9,11-triazatetracyclo[17.2.2.111,14.05,10]tetracosa-1(21),5,7,9,19,22-hexaene-2,2,4-trione] showed a ring closure, isolated yield of 4%. Also, in data set [2], the EC50 is less than 1 µM and the “Max. Activity” value was “++ (++ is 30-60%)”.
For the molecule `CC1(C)CC2CCCCOc3ccc(cc3)S(=O)(=O)NC(=O)c3ccc(-n4ccc(OCCC5(C(F)(F)F)CC5)n4)nc3N1C2` (racemic) [Compound 89, 12,12-dimethyl-8-(3-{2-[1-(trifluoromethyl)cyclopropyl]ethoxy}-1H-pyrazol-1-yl)-19-oxa-2λ^6-thia-3,9,11-triazatetracyclo[18.2.2.111,14.05,10]pentacosa-1(22),5,7,9,20,23-hexaene-2,2,4-trione], the ring closure, isolated yield in data set [1] (from CC1(C)CC(CCCCOc2ccc(S(=O)(=O)NC(=O)c3ccc(-n4ccc(OCCC5(C(F)(F)F)CC5)n4)nc3Cl)cc2)CN1, 17-membered ring, K2CO3/CsF/3A MS, DMSO, 36.5 mM, 165.0 °C, 18.0 h) turned out to be 21%. In data set [2], the EC50 was less than 1 µM and the “Max. Activity” value is reported as “++ (++ is 30-60%)”.
Consider `CC1(C)CCC2CCNc3cccc(n3)S(=O)(=O)NC(=O)c3ccc(-n4ccc(OCCC5(C(F)(F)F)CC5)n4)nc3N21` (racemic) [Compound 108, 8,8-Dimethyl-12-(3-{2-[1-(trifluoromethyl)cyclopropyl]ethoxy}-1H-pyrazol-1-yl)-18λ^6-thia-2,9,11,17,23-pentaazatetracyclo[17.3.1.05,9.010,15]tricosa-1(23),10(15),11,13,19,21-hexaene-16,18,18-trione], for which, in data set [1] (from CC(C)(C)OC(=O)N1C(CCNc2cccc(S(=O)(=O)NC(=O)c3ccc(-n4ccc(OCCC5(C(F)(F)F)CC5)n4)nc3Cl)n2)CCC1(C)C, 13-membered ring, TFA (Boc off), CsF/K2CO3/3A MS, DMSO, 84.6 mM, 130.0 °C, 2 steps), the ring closure, isolated yield amounted to 55%. Also, in data set [2], the EC50 is less than 1 µM and the “Max. Activity” value is listed as “++ (++ is 30-60%)”.
Regarding `CC1(C)CC2CCCCCNc3cccc(n3)S(=O)(=O)NC(=O)c3ccc(-n4ccc(OCCC5(C(F)(F)F)CC5)n4)nc3N1C2` (single isomer, unassigned; enantiomer 1), the ring closure, isolated yield in data set [1] (setting [3]) stood at 47%.
Consider `CC1(C)CC2CCCCCNc3cccc(n3)S(=O)(=O)NC(=O)c3ccc(-n4ccc(OCCC5(C(F)(F)F)CC5)n4)nc3N1C2` (single isomer, unassigned; enantiomer 2), for which the ring closure, isolated yield in data set [1] (setting [3]) is 50%.
Turning to `CC1(C)CCC2CCCNc3cccc(n3)S(=O)(=O)NC(=O)c3ccc(-n4ccc(OCCC5(C(F)(F)F)CC5)n4)nc3N21` (stereo not drawn) [Compound 16, 12,12-dimethyl-8-(3-{2-[1-(trifluoromethyl)cyclopropyl]ethoxy}-1H-pyrazol-1-yl)-2λ^6-thia-3,9,11,19,24-pentaazatetracyclo[18.3.1.05,10.011,15]tetracosa-1(23),5,7,9,20(24),21-hexaene-2,2,4-trione], the ring closure, isolated yield in data set [1] (from CC1(C)CCC(CCCNc2cccc(S(=O)(=O)NC(=O)c3ccc(-n4ccc(OCCC5(C(F)(F)F)CC5)n4)nc3Cl)n2)N1, 14-membered ring, K2CO3/CsF, DMSO, 84.1 mM, 150.0 °C) is 58%. Also, in data set [2], the EC50 was less than 1 µM and the “Max. Activity” value is recorded as “++ (++ is 30-60%)”.
`CC1(C)CC2CNc3cccc(n3)S(=O)(=O)NC(=O)c3ccc(-n4ccc(OCCC5(C(F)(F)F)CC5)n4)nc3N1C2` (stereo not drawn) [Compound 17, 6,6-dimethyl-10-(3-{2-[1-(trifluoromethyl)cyclopropyl]ethoxy}-1H-pyrazol-1-yl)-16λ^6-thia-2,7,9,15,21-pentaazatetracyclo[15.3.1.14,7.08,13]docosa-1(20),8,10,12,17(21),18-hexaene-14,16,16-trione]: the ring closure, isolated yield in data set [1] (from CC(C)(C)OC(=O)N1CC(CNc2cccc(S(=O)(=O)NC(=O)c3ccc(-n4ccc(OCCC5(C(F)(F)F)CC5)n4)nc3Cl)n2)CC1(C)C, 13-membered ring, K2CO3/CsF/3A MS, DMSO, 45.0 mM, 155.0 °C, 2 steps) was 57%. Further, in data set [2], the EC50 fell in the range of 1 to 3 µM and the “Max. Activity” value is “++ (++ is 30-60%)”.
In data set [1] (15-membered ring, K2CO3, NMP, 31.1 mM, 150.0 °C), “racemic 8-[3-(2-{dispiro[2.0.2.1]heptan-7-yl}ethoxy)-1H-pyrazol-1-yl]-16,16-difluoro-12,12-dimethyl-2λ^6-thia-3,9,11,18,23-pentaazatetracyclo[17.3.1.111,14.05,10]tetracosa-1(22),5,7,9,19(23),20-hexaene-2,2,4-trione” came in with a ring closure, isolated yield of 83%.

For the origin of these results see US11866450B2, “Modulators of Cystic Fibrosis Transmembrane Conductance regulator, pharmaceutical compositions, methods of treatment, and process for making the modulators” (priority 2018, dated 2024).
